Experiments:
[1] = Plasma pharmacokinetics of AZD5582 in infant RMs (HPLC-MS/MS, NCA); assay type: in vivo, rhesus macaque
Method: As a potential explanation for the dampened virologic response to AZD5582 observed in infant RMs, we investigated AZD5582 pharmacokinetics (PK) following the third dose using a sparse sampling design. Blood samples were collected immediately following infusion in 4 RMs and from 2 RMs per time point at 1 h, 2 h, 4 h, 8 h, and 24 h postinfusion. […] Noncompartmental analysis (NCA) was conducted to determine pharmacokinetic parameters in infants and compared with available PK data from adult historical controls of SIV-infected, ART-suppressed rhesus macaques (n = 7) given matched doses of AZD5582 (Fig. 4B) ([17]). […] Although corresponding data were not collected from adult macaques, we note that in infants the AUC0-24h was calculated as 239 ng × hr/mL.
Plasma samples were collected from RMs over 24 h following the start of a single 30 min intravenous infusion of AZD5582 using a previously published ([17]). A high-performance liquid chromatography-mass spectrometry (HPLC-MS/MS) method with a dynamic range of 0.2 to 1000 ng/mL. Noncompartmental analysis (NCA) was performed using Phoenix64 WinNonlin v8.1 software using the sparse sampling function to derive mean PK parameters. The linear up-log down trapezoidal rule was used to calculate AUC. The terminal elimination rate constant (kel) was estimated by fitting a linear regression line on a semilog plot to the individual concentration data constrained to observations from 4 to 24 h post start of infusion and used to calculate terminal elimination half-life. One observation below the assay’s limit of quantification was imputed at ½ the lower limit of quantification ([35]).

memory CD4+ T cells = assay: Ki67 expression by whole blood flow cytometry, memory CD4+ T cells; assay type: in vivo, rhesus macaque; settings: for Ki67 expression in memory CD4+ T cells: AZD5582 treated infant RMs
Method: The ncNF-κB pathway plays an important role in regulating T cell differentiation without causing broad systemic inflammation ([22]). We have previously observed a stimulatory effect on peripheral T cells following AZD5582 treatment specifically measurable through increased intracellular Ki67 expression ([17]). To further assess the effect of AZD5582 on infant RMs, flow cytometry was performed longitudinally on whole blood on the day of doses 1, 3, 6, and 9 and both 48 to 72h and 7 days after each of these doses. These time points were selected to allow longitudinal evaluation while remaining within blood volume constraints.
Multicolor flow cytometric analysis was performed on whole blood (WB) or cell suspensions using predetermined optimal concentrations of the following fluorescently conjugated monoclonal antibodies (MAbs). For WB T cell analysis the following MAbs were used: CD3-allophycocyanin (APC)-Cy7 (clone SP34-2), CD95-phycoerythrin (PE)-Cy5 (clone DX2), Ki67-AF700 (clone B56), HLA-DR-peridinin chlorophyll protein (PerCP)-Cy5.5 (clone G46-6), CCR7-fluorescein isothiocyanate (FITC) (clone 150503), CCR5-APC (clone 3A9), CD62L (clone SK11), and CD45-RA-PE-Cy7 (clone L45) from BD Biosciences; CD8-BV711 (clone RPA-T8), CD4-BV650 (clone OKT4), and PD-1-BV421 (clone EH12.2H7) from BioLegend; and CD28-ECD (clone CD28-2) from Beckman-Coulter. Flow cytometric acquisition and analysis of samples were performed on at least 100,000 events on an AURORA flow cytometer driven by the SpectroFlo software package (Cytek). Analyses of the acquired data were performed using FlowJo version 10.0.4 software (TreeStar).

[2] = system: ncNF-κB pathway genes BIRC3 and NFkB2; assay: Ex vivo AZD5582 stimulation of sorted naive and memory CD4+ T cells, target gene RT-qPCR; assay type: cell-based, rhesus macaque; settings: 1000 nM (n = 6) or 100 nM (n = 4) AZD5582, 24 h
Excerpt: We have previously shown that naive CD4^+ T cells are a major contributor to the viral reservoir in both SIV- and SHIV-infected infant macaques ([10], [11]). We were therefore interested to determine whether the dampened ART viremia that we observed in vivo was due to differential induction of ncNF-kB activation in naive and memory CD4^+ T cells following AZD5582 treatment. It is well documented that activation of naive CD4^+ T cells relies predominantly on cNF-κB and not the ncNF-κB pathway ([22]). […]
For cell sorting, peripheral CD4^+ T cells were first enriched by negative selection with the use of magnetic beads and column purification (nonhuman primate CD4^+ T cell isolation kit; Miltenyi). Enriched CD4^+ T cells were then stained with viability dye (Live/Dead Aqua) and previously determined volumes of the following fluorescently conjugated MAbs: CD3-AF700 (clone SP34-2), CD8-APC-Cy7 (clone SK1), CD95-PE-Cy5 (clone DX2), CD62L-PE (clone SK11), and CCR7-PE-Cy7 (clone 3D12) from BD Biosciences; CD4-BV650 from BioLegend. […]
Naïve and memory CD4^+ T cells were treated with 100 or 1000 nM AZD5582 for 24 h and then stored as a dry pellet until RNA extraction. […] Gene expression was normalized to TATA box binding protein (TBP) and the comparative threshold cycle (Ct) method (ΔΔCt) was used for relative quantification of gene expression. […]

[3] = rhesus monkey, in vivo, iv, 0.1 mg/kg

## CN[C@@H](C)C(=O)N[C@H](C(=O)N1CCC[C@H]1C(=O)N[C@H]1c2ccccc2C[C@H]1OCC#CC#CCO[C@@H]1Cc2ccccc2[C@@H]1NC(=O)[C@@H]1CCCN1C(=O)[C@@H](NC(=O)[C@H](C)NC)C1CCCCC1)C1CCCCC1 [AZD5582]
[1]; infant vs adult RMs
  Fold lower AUC0-2h in infants compared with adults: 2.3 fold
[1]; [3]
  AUC0-2h: 223 ng·h/mL
  AUC0-24h: 239 ng·h/mL
  Cmax: 294 ng/mL
  t1/2 (terminal elimination halflife): 9.9 h
Memory CD4+ T cells; 3-days post-AZD5582 (doses 1, 3, 6, 9), P = 0.02
  Mean Ki67 expression in peripheral memory CD4+ T cells: 28.4%
Memory CD4+ T cells; 7 days following dose 1
  Ki67 expression in memory CD4+ T cells: 46.9%
Memory CD4+ T cells; before the increase seen after dose 1
  Ki67 expression in memory CD4+ T cells: 8.7%
Memory CD4+ T cells; T cells following AZD5582 treatment, infant RMs
  Other markers of activation, including HLA-DR and PD-1: did not observe increases
Memory CD4+ T cells; baseline (immediately before doses 1, 3, 6, 9)
  Mean Ki67 expression in peripheral memory CD4+ T cells: 21.0%
Memory CD4+ T cells; relative to three baseline measurements, treated infant RMs
  Average increase of Ki67 expression in memory CD4+ T cells after dose 1: 24.3%
[2]
  Fold induction of BIRC3 gene expression, naive versus memory CD4+ T cells: No significant difference
  Fold induction of NFkB2 gene expression, naive versus memory CD4+ T cells: No significant difference

— PMC9006931, “Altered Response Pattern following AZD5582 Treatment of SIV-Infected, ART-Suppressed Rhesus Macaque Infants” (Journal of Virology, 2022)
